Results published in ChEMBL document CHEMBL1201862, “PubChem BioAssay data set” (2004).
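48-hour exposure; five concentrations; linearly interpolated endpoints. The concentration for 50% growth inhibition is given as GI50.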 Calls of active or inactive are those of the source. Rule as the data show it: active = GI50 up to about 1.1 µM and inactive = higher.

Legend:
Assay in all cases: growth of human tumour cells (NCI), 48 h
[1] = system: T47D
[2] = system: SF-539
[3] = system: IGROV-1
[4] = system: SNB-19
[5] = system: SN12C
[6] = system: COLO 205
[7] = system: U-251
[8] = system: CAKI-1
[9] = system: KM12
[10] = system: Malme-3M
[11] = system: TK-10
[12] = system: MOLT-4
[13] = system: SK-MEL-2
[14] = system: LOX IMVI
[15] = system: CCRF-CEM
[16] = system: Hs-578T
[17] = system: 786-0
[18] = system: SW-620
[19] = system: DU-145
[20] = system: HCT-116
[21] = system: NCI-H23
[22] = system: MDA-MB-435
[23] = system: A549
[24] = system: RXF 393
[25] = system: BT-549
[26] = system: SK-MEL-5
[27] = system: HT-29
[28] = system: UO-31
[29] = system: HCT-15
[30] = system: SF-268
[31] = system: OVCAR-5
[32] = system: SNB-75
[33] = system: OVCAR-3
[34] = system: HOP-62
[35] = system: M14
[36] = system: NCI-H522
[37] = system: NCI-H226
[38] = system: MDA-MB-231
[39] = system: HCC 2998
[40] = system: UACC-257
[41] = system: EKVX
[42] = system: SR
[43] = system: ACHN
[44] = system: HOP-92
[45] = system: UACC-62
[46] = system: OVCAR-4
[47] = system: PC-3
[48] = system: SK-MEL-28
[49] = system: RPMI-8226
[50] = system: MDA-N
[51] = system: NCI/ADR-RES
[52] = system: OVCAR-8
[53] = system: NCI-H460
[54] = system: K562
[55] = system: SF-295
[56] = system: HL-60
[57] = system: SK-OV-3

Cc1ccc(S(=O)(=O)c2[nH]cc(/C(=C\C3CCCCC3)[N+](=O)[O-])c2C2CCCCC2)cc1
GI50 [1]: 0.303 µM (active) | GI50 [2]: 0.462 µM (active) | GI50 [3]: 0.314 µM (active) | GI50 [4]: 1.75 µM (inactive) | GI50 [5]: 0.211 µM (active) | GI50 [6]: 0.25 µM (active) | GI50 [7]: 0.653 µM (active) | GI50 [8]: 0.22 µM (active) | GI50 [9]: 1.79 µM (inactive) | GI50 [10]: 0.564 µM (active) | GI50 [11]: 0.544 µM (active) | GI50 [12]: 0.324 µM (active) | GI50 [13]: 0.377 µM (active) | GI50 [14]: 0.202 µM (active) | GI50 [15]: 0.272 µM (active) | GI50 [16]: 0.324 µM (active) | GI50 [17]: 0.199 µM (active) | GI50 [18]: 0.376 µM (active) | GI50 [19]: 0.596 µM (active) | GI50 [20]: 0.216 µM (active) | GI50 [21]: 0.542 µM (active) | GI50 [22]: 0.398 µM (active) | GI50 [23]: 1.71 µM (inactive) | GI50 [24]: 0.196 µM (active) | GI50 [25]: 0.28 µM (active) | GI50 [26]: 0.318 µM (active) | GI50 [27]: 0.497 µM (active) | GI50 [28]: 0.493 µM (active) | GI50 [29]: 0.199 µM | GI50 [30]: 0.414 µM (active) | GI50 [31]: 0.822 µM (active) | GI50 [32]: 1.82 µM (inactive) | GI50 [33]: 0.27 µM (active) | GI50 [34]: 1.41 µM (inactive) | GI50 [35]: 0.236 µM (active) | GI50 [36]: 0.208 µM (active) | GI50 [37]: 0.832 µM (active) | GI50 [38]: 0.217 µM (active) | GI50 [39]: 0.682 µM (active) | GI50 [40]: 0.393 µM (active) | GI50 [41]: 0.354 µM (active) | GI50 [42]: 0.281 µM (active) | GI50 [43]: 0.366 µM (active) | GI50 [44]: 0.292 µM (active) | GI50 [45]: 0.234 µM (active) | GI50 [46]: 0.388 µM (active) | GI50 [47]: 0.472 µM (active) | GI50 [48]: 0.802 µM (active) | GI50 [49]: 0.251 µM (active) | GI50 [50]: 0.301 µM (active) | GI50 [51]: 0.426 µM (active) | GI50 [52]: 0.368 µM (active) | GI50 [53]: 1.22 µM (inactive) | GI50 [54]: 0.251 µM (active)

CCCCCCCCCCCCCCCCCCNc1ccn(C2OC(CO)C(OP(=O)(O)OCC3CCC(n4ccc(N)nc4=O)O3)C2O)c(=O)n1 (configuration not stated)
GI50 [1]: 83.4 µM (inactive) | GI50 [2]: 32.7 µM (inactive) | GI50 [3]: 27.2 µM (inactive) | GI50 [4]: > 100 µM (inactive) | GI50 [5]: > 100 µM (inactive) | GI50 [6]: 45.9 µM (inactive) | GI50 [7]: > 100 µM (inactive) | GI50 [8]: > 100 µM (inactive) | GI50 [9]: 36.3 µM (inactive) | GI50 [55]: > 100 µM (inactive) | GI50 [10]: 21.1 µM (inactive) | GI50 [11]: 42.1 µM (inactive) | GI50 [12]: 3.9 µM (inactive) | GI50 [13]: > 100 µM (inactive) | GI50 [14]: 32.3 µM (inactive) | GI50 [15]: 16.7 µM (inactive) | GI50 [16]: > 100 µM (inactive) | GI50 [17]: > 100 µM (inactive) | GI50 [18]: 46.3 µM (inactive) | GI50 [19]: > 100 µM (inactive) | GI50 [20]: 66.5 µM (inactive) | GI50 [21]: > 100 µM (inactive) | GI50 [22]: > 100 µM (inactive) | GI50 [23]: > 100 µM (inactive) | GI50 [24]: 15.6 µM (inactive) | GI50 [25]: 30.8 µM (inactive) | GI50 [26]: > 100 µM (inactive) | GI50 [27]: 42.5 µM (inactive) | GI50 [28]: 22.2 µM (inactive) | GI50 [29]: 40.3 µM | GI50 [30]: 27.9 µM (inactive) | GI50 [31]: 57.7 µM (inactive) | GI50 [32]: 62.2 µM (inactive) | GI50 [33]: > 100 µM (inactive) | GI50 [34]: > 100 µM (inactive) | GI50 [35]: 42.3 µM (inactive) | GI50 [36]: 28.6 µM (inactive) | GI50 [37]: > 100 µM (inactive) | GI50 [56]: 17.1 µM (inactive) | GI50 [38]: > 100 µM (inactive) | GI50 [40]: > 100 µM (inactive) | GI50 [41]: > 100 µM (inactive) | GI50 [43]: > 100 µM (inactive) | GI50 [44]: > 100 µM (inactive) | GI50 [45]: > 100 µM (inactive) | GI50 [46]: 93.8 µM (inactive) | GI50 [47]: 17.4 µM (inactive) | GI50 [48]: 61.5 µM (inactive) | GI50 [50]: > 100 µM (inactive) | GI50 [51]: > 100 µM (inactive) | GI50 [52]: > 100 µM (inactive) | GI50 [57]: > 100 µM (inactive) | GI50 [53]: 55.8 µM (inactive)
